Target: T1, ΔF508-CFTR (Homo sapiens, UniProt P13569, DEL508-508)
T1 construct: expressed in transfected cells
Assay: Membrane potential optical assay (FRET voltage-sensor dyes, VIPR), identification of potentiator compounds
Format: cell-based
Settings: Table 3, assay not given; for Emax: read-out: % Activity (% Efficacy, relative efficacy)
Summary of the method: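 NIH3T3 mouse fibroblasts stably expressing ΔF508-CFTR, cultured 24 h at 27 °C, were loaded with FRET voltage dyes CC2-DMPE and DiSBAC2(3). Double-addition format: first addition of Cl⁻-free (gluconate) medium with or without compound; membrane-potential change read as fluorescence on VIPR II.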

T1 sequence (P13569 with tags, fused parts or gaps DEL508-508): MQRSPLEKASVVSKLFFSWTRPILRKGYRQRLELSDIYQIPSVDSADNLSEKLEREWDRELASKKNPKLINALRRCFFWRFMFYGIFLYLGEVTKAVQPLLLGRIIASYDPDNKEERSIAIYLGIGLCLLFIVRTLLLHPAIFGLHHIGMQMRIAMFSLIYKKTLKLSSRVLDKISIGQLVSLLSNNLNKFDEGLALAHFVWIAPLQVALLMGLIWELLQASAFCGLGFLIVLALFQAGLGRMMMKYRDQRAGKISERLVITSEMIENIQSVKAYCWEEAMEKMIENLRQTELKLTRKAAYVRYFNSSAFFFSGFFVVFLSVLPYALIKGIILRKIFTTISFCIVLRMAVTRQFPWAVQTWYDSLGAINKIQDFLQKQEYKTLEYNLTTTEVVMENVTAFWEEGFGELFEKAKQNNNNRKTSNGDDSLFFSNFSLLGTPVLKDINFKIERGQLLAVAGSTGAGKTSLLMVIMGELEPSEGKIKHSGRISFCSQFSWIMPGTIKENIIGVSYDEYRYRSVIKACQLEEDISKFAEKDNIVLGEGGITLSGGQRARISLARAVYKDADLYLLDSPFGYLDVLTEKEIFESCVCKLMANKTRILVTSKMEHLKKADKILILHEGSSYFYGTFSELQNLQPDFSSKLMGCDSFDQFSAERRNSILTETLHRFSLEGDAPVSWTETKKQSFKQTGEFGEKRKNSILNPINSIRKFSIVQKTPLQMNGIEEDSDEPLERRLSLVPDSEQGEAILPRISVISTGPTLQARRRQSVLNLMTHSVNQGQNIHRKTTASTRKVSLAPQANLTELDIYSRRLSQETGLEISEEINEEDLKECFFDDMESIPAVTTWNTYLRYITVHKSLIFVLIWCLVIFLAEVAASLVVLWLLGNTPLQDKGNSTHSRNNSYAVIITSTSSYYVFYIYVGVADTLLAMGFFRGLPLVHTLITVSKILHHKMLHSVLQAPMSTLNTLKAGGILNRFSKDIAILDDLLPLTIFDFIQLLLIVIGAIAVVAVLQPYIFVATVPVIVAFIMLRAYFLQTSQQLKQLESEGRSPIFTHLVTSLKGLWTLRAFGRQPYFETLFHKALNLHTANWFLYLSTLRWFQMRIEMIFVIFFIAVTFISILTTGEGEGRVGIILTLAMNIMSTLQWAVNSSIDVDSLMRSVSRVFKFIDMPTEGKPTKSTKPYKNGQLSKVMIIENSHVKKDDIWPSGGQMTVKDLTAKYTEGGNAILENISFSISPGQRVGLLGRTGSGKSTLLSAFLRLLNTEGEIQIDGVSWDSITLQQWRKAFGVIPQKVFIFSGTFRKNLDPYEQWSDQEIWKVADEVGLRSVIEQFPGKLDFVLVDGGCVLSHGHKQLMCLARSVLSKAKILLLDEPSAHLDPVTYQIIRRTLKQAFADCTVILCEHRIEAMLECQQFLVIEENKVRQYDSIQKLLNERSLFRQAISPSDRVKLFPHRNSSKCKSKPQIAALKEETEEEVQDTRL

Structure (SMILES) | Emax [%] | EC50 [µM]
O=C(Nc1ccccc1-n1cccc1)c1c[nH]c2ccccc2c1=O [Compound 293, 4-oxo-N-[2-(1H-pyrrol-1-yl)phenyl]-1H-quinoline-3-carboxamide] | > 100 | 
N#Cc1cccc(-c2ccccc2NC(=O)c2c[nH]c3ccccc3c2=O)c1 [Compound 83, N-[2-(3-cyanophenyl)phenyl]-4-oxo-1H-quinoline-3-carboxamide] | 25 to 100 | 
COc1ccc(-c2ccccc2NC(=O)c2c[nH]c3ccccc3c2=O)c(OC)c1 [Compound 312, N-[2-(2,4-dimethoxyphenyl)phenyl]-4-oxo-1H-quinoline-3-carboxamide] | 25 to 100 | 
Cc1cccc(NC(=O)c2c[nH]c3ccccc3c2=O)c1C [Compound 61, N-(2,3-dimethylphenyl)-4-oxo-1H-quinoline-3-carboxamide] | 25 to 100 | 
O=C(Nc1cccc(OC(F)(F)F)c1)c1c[nH]c2ccccc2c1=O [Compound 62, 4-oxo-N-[3-(trifluoromethoxy)phenyl]-1H-quinoline-3-carboxamide] | 25 to 100 | 
CCc1ccc(NC(=O)OC)cc1NC(=O)c1c[nH]c2ccccc2c1=O [Compound 249, [4-ethyl-3-[(4-oxo-1H-quinolin-3-yl)carbonylamino]phenyl]aminoformic acid methyl ester] | 25 to 100 | 
CCOC(=O)Nc1cc(NC(=O)c2c[nH]c3ccccc3c2=O)ccc1C [Compound 141, [2-methyl-5-[(4-oxo-1H-quinolin-3-yl)carbonylamino]phenyl]aminoformic acid ethyl ester] | 25 to 100 | 
Nc1cc(NC(=O)c2c[nH]c3ccccc3c2=O)c(Cl)cc1Cl [Compound 242, N-(5-amino-2,4-dichloro-phenyl)-4-oxo-1H-quinoline-3-carboxamide] | 25 to 100 | 
CC(C)c1ccc(NC(=O)c2c[nH]c3ccccc3c2=O)cn1 [Compound 235, N-(6-isopropyl-3-pyridyl)-4-oxo-1H-quinoline-3-carboxamide] | 25 to 100 | 
CCc1ccc(Cl)c(CC)c1NC(=O)c1c[nH]c2ccccc2c1=O [Compound 91, N-(3-chloro-2,6-diethyl-phenyl)-4-oxo-1H-quinoline-3-carboxamide] | 25 to 100 | 
CC(C)(C)c1cc(C(C)(C)C)c(NC(=O)c2c[nH]c3cccc(O)c3c2=O)cc1O [Compound 464, 5-hydroxy-N-(5-hydroxy-2,4-ditert-butyl-phenyl)-4-oxo-1H-quinoline-3-carboxamide] | 25 to 100 | 
CN(C)[C@H]1CCN(c2ccc(NC(=O)c3c[nH]c4ccccc4c3=O)c(C(F)(F)F)c2)C1 [Compound 513, (S)-N-(4-(3-(dimethylamino)pyrrolidin-1-yl)-2-(trifluoromethyl)phenyl)-4-oxo-1,4-dihydroquinoline-3-carboxamide] | 25 to 100 | 
CC(C)(C)c1ccc(NC(=O)c2c[nH]c3ccccc3c2=O)cc1OCCO [Compound 458, N-[3-(2-hydroxyethoxy)-4-tert-butyl-phenyl]-4-oxo-1H-quinoline-3-carboxamide] | 25 to 100 | 
CCCCCc1ccc(NC(=O)c2c[nH]c3ccccc3c2=O)cc1 [Compound 99, 4-oxo-N-(4-pentylphenyl)-1H-quinoline-3-carboxamide] | 25 to 100 | 
CC(C)c1ccc(-c2ccccc2NC(=O)c2c[nH]c3ccccc3c2=O)cc1 [Compound 432, N-[2-(4-isopropylphenyl)phenyl]-4-oxo-1H-quinoline-3-carboxamide] | 25 to 100 | 
CCOc1cccc2c(=O)c(C(=O)Nc3cc(O)c(C(C)(C)C)cc3F)c[nH]c12 [Compound 526, 8-ethoxy-N-(2-fluoro-5-hydroxy-4-tert-butyl-phenyl)-4-oxo-1H-quinoline-3-carboxamide] | < 25 | 
O=C(Nc1ccc2cc[nH]c2c1)c1c(C(F)(F)F)[nH]c2ccccc2c1=O [Compound 184, N-(1H-indol-6-yl)-4-oxo-2-(trifluoromethyl)-1H-quinoline-3-carboxamide] | < 25 | 
CC(C)n1cc(C(=O)Nc2ccccc2C(C)(C)C)c(=O)c2ccccc21 [Compound 473, 1-isopropyl-4-oxo-N-(2-tert-butylphenyl)-1H-quinoline-3-carboxamide] | 25 to 100 | 
O=C(Nc1ccccc1-c1ccccc1F)c1c[nH]c2ccccc2c1=O [Compound 313, N-[2-(2-fluorophenyl)phenyl]-4-oxo-1H-quinoline-3-carboxamide] | 25 to 100 | 
COc1ccc2[nH]cc(C(=O)Nc3cc(O)c(C(C)(C)C)cc3C(C)(C)C)c(=O)c2c1 [Compound 496, N-(5-hydroxy-2,4-ditert-butyl-phenyl)-6-methoxy-4-oxo-1H-quinoline-3-carboxamide] | 25 to 100 | 
CN(C)CCNC(=O)c1ccc(-c2cc3cc[nH]c3cc2NC(=O)c2c[nH]c3ccccc3c2=O)cc1 [Compound 347, N-[5-[4-(2-dimethylaminoethylcarbamoyl)phenyl]-1H-indol-6-yl]-4-oxo-1H-quinoline-3-carboxamide] | 25 to 100 | 
O=C(Nc1ccccc1-c1ccc(F)cc1F)c1c[nH]c2ccccc2c1=O [Compound 63, N-[2-(2,4-difluorophenyl)phenyl]-4-oxo-1H-quinoline-3-carboxamide] | 25 to 100 | 
CCCc1ccc(NC(C)=O)cc1NC(=O)c1c[nH]c2ccccc2c1=O [Compound 232, N-(5-acetylamino-2-propyl-phenyl)-4-oxo-1H-quinoline-3-carboxamide] | 25 to 100 | 10 to 25
O=C(Nc1ccccc1-c1ccccc1Oc1ccccc1)c1c[nH]c2ccccc2c1=O [Compound 247, 4-oxo-N-[2-(2-phenoxyphenyl)phenyl]-1H-quinoline-3-carboxamide] | 25 to 100 | 

Second part, the molecule after the results:

Emax [%] | EC50 [µM] | Structure (SMILES)
> 100 |  | CC(C)(C)OC(=O)[C@H]1CCCN1c1ccc(NC(=O)c2c[nH]c3ccccc3c2=O)c(C(F)(F)F)c1 [Compound 540, (R)-tert-butyl 1-(4-(4-oxo-1,4-dihydroquinoline-3-carboxamido)-3-(trifluoromethyl)phenyl)pyrrolidine-2-carboxylate]
< 25 |  | COc1nc(NC(=O)c2c[nH]c3ccccc3c2=O)ccc1C(F)(F)F [Compound 571, N-[6-methoxy-5-(trifluoromethyl)-2-pyridyl]-4-oxo-1H-quinoline-3-carboxamide]
25 to 100 |  | CC(C)(C)c1cc(F)c(NC(=O)c2c[nH]c3cc(C#N)ccc3c2=O)cc1O [Compound 677, 7-cyano-N-(2-fluoro-5-hydroxy-4-tert-butyl-phenyl)-4-oxo-1H-quinoline-3-carboxamide]
25 to 100 |  | O=C(Nc1cc(C(=O)O)c2cc[nH]c2c1)c1c[nH]c2ccccc2c1=O [Compound 711, 6-[(4-oxo-1H-quinolin-3-yl)carbonylamino]-1H-indole-4-carboxylic acid]
25 to 100 |  | Cc1ccc2c(=O)c(C(=O)Nc3cc4[nH]ccc4cc3C(F)(F)F)c[nH]c2c1 [Compound 576, 7-methyl-4-oxo-N-[5-(trifluoromethyl)-1H-indol-6-yl]-1H-quinoline-3-carboxamide]
25 to 100 |  | O=C(Nc1cc(OCc2ccccc2)c(C2CCCCC2)cc1C(F)(F)F)c1c[nH]c2ccccc2c1=O [Compound 654, N-[5-benzyloxy-4-cyclohexyl-2-(trifluoromethyl)phenyl]-4-oxo-1H-quinoline-3-carboxamide]
< 25 |  | CC(CO)(CO)c1ccc(NC(=O)c2c[nH]c3ccccc3c2=O)cc1 [Compound 590, N-[4-[2-hydroxy-1-(hydroxymethyl)-1-methyl-ethyl]phenyl]-4-oxo-1H-quinoline-3-carboxamide]
25 to 100 |  | CC(C)(C)c1cc2cc[nH]c2cc1NC(=O)c1c[nH]c2cc(C#N)ccc2c1=O [Compound 558, 7-cyano-4-oxo-N-(5-tert-butyl-1H-indol-6-yl)-1H-quinoline-3-carboxamide]
25 to 100 |  | Cc1ccc2c(=O)c(C(=O)Nc3ccc(N4CCC[C@@H]4C)cc3C(F)(F)F)c[nH]c2c1 [Compound 607, (S)-7-methyl-N-(4-(2-methylpyrrolidin-1-yl)-2-(trifluoromethyl)phenyl)-4-oxo-1,4-dihydroquinoline-3-carboxamide]
25 to 100 |  | COC(=O)[C@@H]1[C@H]2C[C@H]2CN1c1ccc(NC(=O)c2c[nH]c3ccccc3c2=O)c(C(F)(F)F)c1 [Compound 531, (1S,2S,5R)-methyl 3-(4-(4-oxo-1,4-dihydroquinoline-3-carboxamido)-3-(trifluoromethyl)phenyl)-3-azabicyclo[3.1.0]hexane-2-carboxylate]
25 to 100 |  | O=C(Nc1ccc(OC(F)(F)F)c(N2CCCC2)c1)c1c[nH]c2ccccc2c1=O [Compound 579, 4-oxo-N-[3-pyrrolidin-1-yl-4-(trifluoromethoxy)phenyl]-1H-quinoline-3-carboxamide]
25 to 100 |  | O=C(Nc1ccc(N2CCC[C@H]2C(=O)O)cc1C(F)(F)F)c1c[nH]c2ccccc2c1=O [Compound 567, (S)-1-[4-[(4-oxo-1H-quinolin-3-yl)carbonylamino]-3-(trifluoromethyl)phenyl]pyrrolidine-2-carboxylic acid]
> 100 |  | COC(=O)[C@]1(C)CCCN1c1ccc(NC(=O)c2c[nH]c3ccccc3c2=O)c(C(F)(F)F)c1 [Compound 631, (S)-methyl 2-methyl-1-(4-(4-oxo-1,4-dihydroquinoline-3-carboxamido)-3-(trifluoromethyl)phenyl)pyrrolidine-2-carboxylate]
25 to 100 |  | O=C(Nc1ccc(N2CCCC2)cc1C(F)(F)F)c1c[nH]c2ccc(F)cc2c1=O [Compound 562, 6-fluoro-4-oxo-N-[4-pyrrolidin-1-yl-2-(trifluoromethyl)phenyl]-1H-quinoline-3-carboxamide]
25 to 100 |  | Cc1cc(C(C)(C)C)c(O)cc1NC(=O)c1c[nH]c2cccc(O)c2c1=O [Compound 588, 5-hydroxy-N-(5-hydroxy-2-methyl-4-tert-butyl-phenyl)-4-oxo-1H-quinoline-3-carboxamide]
25 to 100 |  | Cc1cccc2[nH]cc(C(=O)Nc3ccc(N4CC[C@H](F)C4)cc3C(F)(F)F)c(=O)c12 [Compound 626, (S)-N-(4-(3-fluoropyrrolidin-1-yl)-2-(trifluoromethyl)phenyl)-5-methyl-4-oxo-1,4-dihydroquinoline-3-carboxamide]
